Laboratory results from PubChem BioAssay AID1963865 (Molecular Pharmacology Branch, DTP, NCI, 2024).

Test system: KRAS PDC multicell spheroid viability
Assay: Anticancer human tumor 825966-067-R-J1-PDC patient-derived colon carcinoma cell line growth inhibition [KRAS2]
Details: for IC50: curve of first compound; for viability, T/C: stronger effect = lower value
Excerpt: Multicellular complex tumor spheroid response to RAS pathway inhibitors in combination with a targeted agents in patient-derived cell lines with oncogenic KRAS variants from multiple cancer types
A high-throughput screen of multi-cell type tumor spheroids was designed to identify active combinations of targeted small molecules and KRAS pathway inhibitors. Complex spheroids include a stromal component modeled by human endothelial cells (HUVEC) and fibroblasts modeled by human mesenchymal stem cells (MSCs). The concentration ranges selected for each drug and investigational agent were based upon clinically achievable concentrations if the clinical Cmax of the agent was known.
Compounds. The drugs and investigational agents: BI-3406 (NSC825286), BAY-293 (NSC824723), batoprotafib (TNO155; NSC825523), sotorasib (AMG 510; NSC818433), MRTX1257 (NSC819558), elimusertib (BAY 1895344; NSC800525), molibresib (GSK525762; NSC774829), temuterkib (LY3214996; NSC803410), venetoclax (NSC766270), alisertib (NSC759677), olaparib (NSC753686), talazoparib (NSC767125), erdafitinib (NSC781556), ipatasertib (NSC767898), cabozantinib (NSC761068), nintedanib (NSC756659), abemaciclib (NSC768073), docetaxel (NSC628503), trametinib (NSC758246), and sapanisertib (NSC764658) were obtained from the National Cancer Institute (NCI) Developmental Therapeutics Program Chemical Repository. The FDA-approved anticancer drug set is available from the Developmental Therapeutics Program. […] The stock solutions were prepared in dimethyl sulfoxide (DMSO, Sigma-Aldrich, St. Louis, MO, cat. D2650) at 800-fold the tested concentration and stored at -70 degrees C prior to their use. All drugs and investigational agents were tested over a range starting from a high concentration at or near the clinical Cmax and decreasing in half-log increments. If the clinical Cmax for an agent had not been determined, the highest concentration tested was 10 microM.
Cell Culture. All cells were maintained in an incubator at 37 degrees C and 5% CO2 with 95% humidity. The PDC lines were cultured according to standard operating procedures established by the NCI PDMR (https://pdmr.cancer.gov/sops/default.htm). Briefly, all PDCs were thawed and cultured in Matrigel-coated flasks prepared with a working solution of 1X Ham's F-12 nutrient mix, without supplementation (Invitrogen, Waltham, MA, cat. 11765054), 100 U/mL penicillin-streptomycin (Invitrogen, cat. 15140122), and 2.5% Matrigel (Corning Inc., Corning, NY, cat. 354248) for the first three passages. All PDCs were cultured in complete DMEM/F-12 media containing advanced DMEM/F-12 (Invitrogen, cat. 12634028), 4.9% defined fetal bovine serum, heat inactivated (HyClone Laboratories Inc., Logan, UT, cat. SH30070.03HI), 389 ng/mL hydrocortisone (Sigma-Aldrich, cat. H4001), 9.7 ng/mL human EGF recombinant protein (Invitrogen, cat. PHG0313), 23.4 microg/mL adenine (Sigma-Aldrich, cat. A2786), 97.3 U/mL penicillin-streptomycin (Invitrogen, cat. 15140122), 1.9 mM L-glutamine (Invitrogen, cat. 25030081), and 9.7 microM Y-27632 dihydrochloride (Tocris Bioscience, Bristol, United Kingdom, cat. 1254). The PDCs were cultured in complete DMEM/F12 media without 9.7 microM Y-27632 dihydrochloride for at least two passages prior to the screen. The established cell line HOP-62 was cultured in RPMI 1640 medium, HEPES (Invitrogen, cat. 22400105) with 10% defined fetal bovine serum (HyClone Laboratories Inc., cat. SH30070.03) and 2 mM L-glutamine (Invitrogen, cat. 25030081). The pooled donor HUVEC were cultured in endothelial cell growth medium 2 (PromoCell, Heidelberg, Germany, cat. C-22011) and the hMSC were cultured in mesenchymal stem cell growth medium 2 (PromoCell, cat. C-28009). For all experiments, HUVEC and hMSC were used at passages </=5, while the malignant cell lines were used at passages </=15. […]

[1] = second compound 0.1 µM, first compound 0.01 µM
[2] = second compound 0.1 µM, first compound 0.0316 µM
[3] = second compound 0.1 µM, first compound 0.1 µM
[4] = second compound 0.316 µM, first compound 0.01 µM
[5] = second compound 0.316 µM, first compound 0.0316 µM
[6] = second compound 0.316 µM, first compound 0.1 µM
[7] = second compound 1 µM, first compound 0.01 µM
[8] = second compound 1 µM, first compound 0.0316 µM
[9] = second compound 1 µM, first compound 0.1 µM
[10] = second compound 3.16 µM, first compound 0.01 µM
[11] = second compound 3.16 µM, first compound 0.0316 µM
[12] = second compound 3.16 µM, first compound 0.1 µM
[13] = second compound 10 µM, first compound 0.01 µM
[14] = second compound 10 µM, first compound 0.0316 µM
[15] = second compound 10 µM, first compound 0.1 µM
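Also: spheroids exposed to compounds for 7 days.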
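For viability, T/C in this document: 100% = DMSO vehicle control viability.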

Question: CC(=O)OC12COC1CC(O)C1(C)C(=O)C(O)C3=C(C)C(OC(=O)C(O)C(NC(=O)OC(C)(C)C)c4ccccc4)CC(O)(C(OC(=O)c4ccccc4)C21)C3(C)C (stereo not given) + C=CC(=O)N1CCN(c2nc(=O)n(-c3c(C)ccnc3C(C)C)c3nc(-c4c(O)cccc4F)c(F)cc23)C(C)C1 was tested. Which IC50 (second compound 0.1 µM) did it give?
Answer: < 0.01 µM

Question: And the IC50 (second compound 0.316 µM)?
Answer: < 0.01 µM

Question: What about the IC50 (second compound 1 µM) of the same compound?
Answer: < 0.01 µM

Question: And the IC50 (second compound 3.16 µM)?
Answer: < 0.01 µM

Question: What about the IC50 (second compound 10 µM) of the same compound?
Answer: < 0.01 µM

Question: What about the viability, T/C [1] of the same compound?
Answer: 33.9%

Question: And the viability, T/C [2]?
Answer: 30.6%

Question: And the viability, T/C [3]?
Answer: 20.5%

Question: And the viability, T/C (second compound 0.1 µM, first compound 0.316 µM)?
Answer: 20.9%

Question: What about the viability, T/C (second compound 0.1 µM, first compound 1 µM) of the same compound?
Answer: 22.8%

Question: And the viability, T/C (second compound 0.1 µM, first compound 3.16 µM)?
Answer: 31.5%

Question: And the viability, T/C [4]?
Answer: 26.8%

Question: What about the viability, T/C [5] of the same compound?
Answer: 24%

Question: And the viability, T/C [6]?
Answer: 24.6%

Question: And the viability, T/C (second compound 0.316 µM, first compound 0.316 µM)?
Answer: 26%

Question: What about the viability, T/C (second compound 0.316 µM, first compound 1 µM) of the same compound?
Answer: 28.5%

Question: And the viability, T/C (second compound 0.316 µM, first compound 3.16 µM)?
Answer: 29.7%

Question: And the viability, T/C [7]?
Answer: 27.9%

Question: What about the viability, T/C [8] of the same compound?
Answer: 34.3%

Question: And the viability, T/C [9]?
Answer: 25.9%

Question: What about the viability, T/C (second compound 1 µM, first compound 0.316 µM) of the same compound?
Answer: 23.9%

Question: And the viability, T/C (second compound 1 µM, first compound 1 µM)?
Answer: 23.1%

Question: What about the viability, T/C (second compound 1 µM, first compound 3.16 µM) of the same compound?
Answer: 22.5%

Question: What about the viability, T/C [10] of the same compound?
Answer: 38.3%

Question: What about the viability, T/C [11] of the same compound?
Answer: 27.3%

Question: What about the viability, T/C [12] of the same compound?
Answer: 25.5%

Question: And the viability, T/C (second compound 3.16 µM, first compound 0.316 µM)?
Answer: 23.2%

Question: What about the viability, T/C (second compound 3.16 µM, first compound 1 µM) of the same compound?
Answer: 26.9%

Question: What about the viability, T/C (second compound 3.16 µM, first compound 3.16 µM) of the same compound?
Answer: 39.2%

Question: What about the viability, T/C [13] of the same compound?
Answer: 30.8%

Question: What about the viability, T/C [14] of the same compound?
Answer: 34.9%

Question: And the viability, T/C [15]?
Answer: 24.1%

Question: And the viability, T/C (second compound 10 µM, first compound 0.316 µM)?
Answer: 26.7%

Question: What about the viability, T/C (second compound 10 µM, first compound 1 µM) of the same compound?
Answer: 17.1%

Question: And the viability, T/C (second compound 10 µM, first compound 3.16 µM)?
Answer: 24.5%

Question: With CN(C)C/C=C/C(=O)Nc1cc2c(Nc3ccc(F)c(Cl)c3)ncnc2cc1O[C@H]1CCOC1 + C=CC(=O)N1CCN(c2nc(=O)n(-c3c(C)ccnc3C(C)C)c3nc(-c4c(O)cccc4F)c(F)cc23)C(C)C1 as the compound, how does the IC50 (second compound 0.1 µM) read?
Answer: > 0.1 µM

Question: And the IC50 (second compound 0.316 µM)?
Answer: > 0.1 µM

Question: What about the IC50 (second compound 1 µM) of the same compound?
Answer: > 0.1 µM

Question: And the IC50 (second compound 3.16 µM)?
Answer: > 0.1 µM

Question: And the IC50 (second compound 10 µM)?
Answer: > 0.1 µM

Question: What about the viability, T/C (second compound 0.1 µM, first compound 0.000316 µM) of the same compound?
Answer: 104%

Question: And the viability, T/C (second compound 0.1 µM, first compound 0.001 µM)?
Answer: 114%

Question: What about the viability, T/C (second compound 0.1 µM, first compound 0.00316 µM) of the same compound?
Answer: 110%

Question: What about the viability, T/C [1] of the same compound?
Answer: 101%

Question: And the viability, T/C [2]?
Answer: 94.5%

Question: What about the viability, T/C [3] of the same compound?
Answer: 106%

Question: What about the viability, T/C (second compound 0.316 µM, first compound 0.000316 µM) of the same compound?
Answer: 97.8%

Question: What about the viability, T/C (second compound 0.316 µM, first compound 0.001 µM) of the same compound?
Answer: 106%

Question: What about the viability, T/C (second compound 0.316 µM, first compound 0.00316 µM) of the same compound?
Answer: 91.8%

Question: And the viability, T/C [4]?
Answer: 101%

Question: And the viability, T/C [5]?
Answer: 103%

Question: What about the viability, T/C [6] of the same compound?
Answer: 117%

Question: What about the viability, T/C (second compound 1 µM, first compound 0.000316 µM) of the same compound?
Answer: 110%

Question: What about the viability, T/C (second compound 1 µM, first compound 0.001 µM) of the same compound?
Answer: 101%

Question: And the viability, T/C (second compound 1 µM, first compound 0.00316 µM)?
Answer: 91.2%

Question: And the viability, T/C [7]?
Answer: 112%

Question: And the viability, T/C [8]?
Answer: 99.3%

Question: What about the viability, T/C [9] of the same compound?
Answer: 107%

Question: What about the viability, T/C (second compound 3.16 µM, first compound 0.000316 µM) of the same compound?
Answer: 98.8%

Question: And the viability, T/C (second compound 3.16 µM, first compound 0.001 µM)?
Answer: 64.3%

Question: What about the viability, T/C (second compound 3.16 µM, first compound 0.00316 µM) of the same compound?
Answer: 93.2%

Question: What about the viability, T/C [10] of the same compound?
Answer: 107%

Question: What about the viability, T/C [11] of the same compound?
Answer: 89%

Question: What about the viability, T/C [12] of the same compound?
Answer: 103%

Question: What about the viability, T/C (second compound 10 µM, first compound 0.000316 µM) of the same compound?
Answer: 86.4%

Question: What about the viability, T/C (second compound 10 µM, first compound 0.001 µM) of the same compound?
Answer: 73.5%

Question: And the viability, T/C (second compound 10 µM, first compound 0.00316 µM)?
Answer: 94.9%

Question: What about the viability, T/C [13] of the same compound?
Answer: 86.4%

Question: What about the viability, T/C [14] of the same compound?
Answer: 83.5%

Question: What about the viability, T/C [15] of the same compound?
Answer: 84.1%
